One assay concerns P-493-6 cell line. Put plainly: CellTiter Blue metabolic viability, P-493-6. It counts as cell-based. The source says:
The P-493-6 cell line is a non-transformed B cell line that can be genetically engineered to have either “low” levels of c-Myc, “medium” levels of c-Myc or “high” levels of c-Myc. The terms “low”, “medium” and “high” are descriptors commonly used in the art and will be readily understood to mean: • i) “low” levels of c-Myc-a level of MYC expression which represents non-proliferating normal cells (i.e. a level of MYC expression not sufficient to cause the cycling of the cells); • ii) “medium” levels of c-Myc-a level of MYC expression which represents normal proliferating cells; and • iii) ““high” levels of c-Myc-a level of MYC expression which represents enforced/deregulated expression of c-Myc, typically observed in cancerous cells. At the respective end points of the experiments 20 μL/well of the CellTiter Blue Assay (Promega, G8081) were added and the cells were incubated at 37° C. for 3 hours. The fluorescence was measured at 570 nm using an EnVisionTM plate reader. As a positive control, the highest DMSO concentration was added to the cells (usually 0.4% DMSO); as a negative control, the cells were treated with 10 μg/mL Puromycin and 1 uM Staurosporine (Merck, […] and […], respectively). The experiment was performed in a 96 well plate and in technical quadruplicate. […]
In general terms: The colour change of resazurin is a common sign of viable cells or microbes.

Assay [1] deals with Shep-ER-N-MYC cell line. Put plainly: CellTiter Blue metabolic viability, Shep-ER-N-MYC. It counts as cell-based, human. To be noted: 72 hours, with or without induction of MYCN. From the text: (§1) In the experimental protocols described herein the SKNAS and Shep cell lines were genetically engineered to model differences between high grade neuroblastoma (which are usually marked by MYCN amplifications and with particular poor clinical prognosis) and low grade neuroblastoma. Accordingly, the SKNAS and/or Shep cell lines “with N-MYC induction” described herein will be understood to be cell lines treated with tamoxifen and represent aggressive, high grade type cancer cells. Conversely, the SKNAS and/or Shep cell lines “without N-MYC induction” described herein will be understood to be cell lines not treated with tamoxifen and represent less aggressive forms of cancer cells (Huang et al., Cold Spring Harb. Perspect. Med., 2013, 3(10), 1-22).
(§2) At the respective end points of the experiments 20 μL/well of the CellTiter Blue Assay (Promega, G8081) were added and the cells were incubated at 37° C. for 3 hours. The fluorescence was measured at 570 nm using an EnVision™ plate reader. As a positive control, the highest DMSO concentration was added to the cells (usually 0.4% DMSO); as a negative control, the cells were treated with 10 μg/mL Puromycin and 1 uM Staurosporine (Merck, P7255 and S4400, respectively).
The experiment was performed in a 96 well plate and in technical quadruplicate. On day 0, 1,000 cells/well were seeded in 50 μL media. […]

Assay [2] relates to SKNAS-ER-N-MYC cell line. Nature of the assay: CellTiter Blue metabolic viability, SKNAS-ER-N-MYC. It is filed as cell-based, human. To be noted: 96 hours, with or without induction of MYCN.
Source text: as §1, §2
The experiment was performed in a 48 well plate and in technical triplicate. On day 0, 5,500 cells/well were seeded in 200 μL media. […]

For assay [3], the system named is Shep-ER-N-MYC cell line. Nature of the assay: Flow cytometry (cell number, caspase3, cell cycle), Shep-ER-N-MYC. It is filed as cell-based, human. The source says:
(§3) Single-cell suspensions were stained with the following monoclonal antibody: α-Active Caspase3 (BD Biosciences, C92-605, 550821, PE) and c-Myc (Abeam, Y69, ab190560). To analyse DNA content, we stained with FxCycle Violet (ThermoFisher Scientific, F10347). To assess proliferation, we used the Click-iT EdU Alexa Fluor 488 Flow Cytometry Assay Kit (ThermoFisher Scientific, C10420) according to manufacturer's instructions. Zombie NIR (Biolegend, 423105) was used to exclude dead cells. The cells were fixed in a 4% solution of PFA, permeabilised with Cytofix/Cytoperm (BD Bioscience, 554714) and washed in Perm/Wash Buffer (BD Bioscience, 554723). Samples were acquired on a MACSQuant VYB (Miltenyi Biotec) and analysed using the FlowJo software (v10.4, Tree star).
(§4) The experiment was performed in a 24 well plate and in technical duplicate. On day 0, 7,800 cells/well for the Shep and 15,000 cells/well for the SKNAS were seeded in 500 μL media. On day 1, the media was removed and 600 μL of media with 100 nM of Tamoxifen, to induce N-Myc, or ethanol as control. On day 2, the respective concentrations of NMT inhibitor were added. After 6 hours, 24 hours, 48 hours and 72 hours the cells were treated according to the general procedures; however, all the media was collected to not loose apoptotic cells, and Trypsin (ThermoFisher Scientific, 25200056) was used to harvest the cells. […]
For orientation: A flow cytometer gives signals particle by particle.

In assay [4] the test system is SKNAS-ER-N-MYC cell line. Put plainly: Flow cytometry (cell number, caspase3, cell cycle), SKNAS-ER-N-MYC. It counts as cell-based, human. The conditions noted are these: MYCN activated cells; FIG. 19.
Source text: as §3, §4

The next assay addresses T1, human NMT1 (HsNMT1) (Homo sapiens, UniProt P30419).
T1 sequence (P30419 1-496): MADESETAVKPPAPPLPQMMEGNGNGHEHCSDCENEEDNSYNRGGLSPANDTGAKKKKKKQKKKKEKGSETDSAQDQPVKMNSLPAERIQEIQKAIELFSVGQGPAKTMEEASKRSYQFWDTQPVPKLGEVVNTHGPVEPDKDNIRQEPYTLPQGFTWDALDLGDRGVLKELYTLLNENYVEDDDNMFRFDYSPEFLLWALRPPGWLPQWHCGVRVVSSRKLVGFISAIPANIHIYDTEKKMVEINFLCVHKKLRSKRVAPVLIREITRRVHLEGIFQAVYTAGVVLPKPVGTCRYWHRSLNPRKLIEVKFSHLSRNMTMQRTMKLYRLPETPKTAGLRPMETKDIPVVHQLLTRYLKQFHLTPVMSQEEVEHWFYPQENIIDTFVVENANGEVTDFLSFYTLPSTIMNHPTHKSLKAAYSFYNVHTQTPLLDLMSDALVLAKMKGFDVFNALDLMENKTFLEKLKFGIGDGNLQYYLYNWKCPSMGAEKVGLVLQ
Nature of the assay: HsNMT1 fluorescence-based assay (CoA detection by CPM). It is filed as biochemical. The procedure:
The IC50 values for human NMT1 (HsNMT1) of Compounds 5 and 7 were measured using a sensitive fluorescence-based assay based on detection of CoA by 7-diethylamino-3-(4-maleimido-phenyl)-4-methylcoumarin, as described in Goncalves, V., et al., Analytical Biochemistry, 2012, 421, 342-344 and Goncalves, V., et al., J. Med. Chem, 2012, 55, 3578.

Another assay concerns MRC5 cells. Nature of the assay: Metabolic activity assay (MTS assay). It is filed as cell-based. To be noted: Homo sapiens, MRC5 fibroblast cells, 72 h. The procedure:
Compounds 5 and 7 were also tested for activity in an in vitro metabolic activity assay using the human cell line MRC5. Compounds having activity in inhibiting metabolic activity in the assay are expected to be useful as agents for preventing and/or treating cancer, by virtue of being inhibitors of human NMT1 and/or NMT2.
MRC5 cells (cell type: fibroblast cells) were grown in DMEM media (supplemented with 10% FBS) and were seeded in a 96-well plate, 24 h prior to treatment. Cell suspensions were prepared by adjusting the cell density to the appropriate concentration (as stated in the Table 1 below) and 50 μL of the cell suspension was transferred to wells B-G in columns 2-11 of a 96-well plate. […]
After 72 h, 20 μL MTS reagent (Promega, prepared according to the supplier protocol) was added to each well of the 96-well plate. The plate was incubated at 37° C. for 2 h and the absorbance per well was measured at 490 nm with an EnVision plate reader. The average absorbance value of the negative control (Puromycin-treated cells) was subtracted from each value and the metabolic activity was calculated as a percentage relative to the positive control (DMSO-treated cells). EC50 values were calculated using GraphPad.
Background: Tetrazolium dyes change colour on reduction, which living cells bring about.

With `Cc1nn(C)c(C)c1CCOc1c(-c2ccc3c(c2)c(CN(C)C)nn3C)ccc(F)c1F` [Compound 2, 1-(5-(3,4-difluoro-2-(2-(1,3,5-trimethyl-1H-pyrazol-4-yl)ethoxy)phenyl)-1-methyl-1H-indazol-3-yl)-N,N-dimethylmethanamine], the “effect on cell viability” value in the assay with P-493-6 cell line (10 nM, 72 hours, Myc high cell lines) is “measurable effects on cell viability”. Besides, in the assay with P-493-6 cell line (48 hours and 72 hours, c-MYC high, medium, low), the “cell death depending on c-MYC level” value is “clear MYC-dependent increase in cell death”. Further, the “cell death with high versus low levels of MYCN” value in the assay on Shep-ER-N-MYC cell line [1] and in the assay with SKNAS-ER-N-MYC cell line [2] was “increased cell death more rapidly at lower concentrations” each time. In addition, the cell cycling entry is given as “do not reduce their cycling” in the assay on Shep-ER-N-MYC cell line [3] (MYCN activated cells, FIG. 17); “stops cycling at 48 hours” in the assay on Shep-ER-N-MYC cell line [3] (cell line without activated MYCN); “do not reduce their cycling” with SKNAS-ER-N-MYC cell line [4].

A word on the IC50: it is the concentration that gives 50% inhibition. High values mean a need for much substance, low ones inhibition by little substance. The term EC50 denotes the concentration at which the effect is half-maximal. Higher therefore signals a need for much substance. For the molecule `Cc1c(CCOc2cc(Cl)ccc2-c2ccc3ncc(CCN)n3c2)c(C(=O)N(C)C)nn1C` [Compound 5, 4-(2-{2-[3-(2-aminoethyl)imidazo[1,2-a]pyridin-6-yl]-5-chlorophenoxy}ethyl)-N,N,1,5-tetramethyl-1H-pyrazole-3-carboxamide], it took 1.5 nM to reach half-maximal inhibition at human NMT1 (HsNMT1) (IC50). In the assay with MRC5 cells, this molecule showed a 50% effective concentration (EC50) of 13 nM.

`CNC(=O)c1nn(C)c(C)c1CCOc1cc(Cl)ccc1-c1ccc2ncc(CCN)n2c1` [Compound 7, 4-(2-{2-[3-(2-aminoethyl)imidazo[1,2-a]pyridin-6-yl]-5-chlorophenoxy}ethyl)-N,1,5-trimethyl-1H-pyrazole-3-carboxamide] came in with a concentration for half-maximal inhibition (IC50) against human NMT1 (HsNMT1) of 0.4 nM. In the assay with MRC5 cells, this molecule registered an EC50 of 37 nM.
